From US20230295115A1, “SUBSTITUTED ISOQUINOLINYLMETHYL AMIDES, ANALOGUES THEREOF, AND METHODS USING SAME” (priority 2020, published 2023)
Read-outs that look alike come from different tables or passages of the source.

Tested on: HBV rcDNA
Test: HepDE19 assay with bDNA quantitation of HBV rcDNA
Format: cell-based, hepatitis B virus (HBV)
Protocol: HepDE19 assay with bDNA quantitation of HBV rcDNA:
HepDE19 (50,000 cells/well) were plated in 96-well collagen-coated tissue-culture treated microtiter plates in DMEM/F12 medium supplemented with 10% fetal bovine serum, 1% penicillin-streptomycin and 1 μg/mL tetracycline and incubated in a humidified incubator at 37° C. and 5% CO2 overnight. Next day, the cells were switched to fresh medium without tetracycline and incubated for 4 hours at 37° C. and 5% CO2. […] The final DMSO concentration in the assay was 0.5%. The plates were incubated for 7 days in a humidified incubator at 37° C. and 5% CO2. Following a 7 day-incubation, the level of rcDNA present in the inhibitor-treated wells was measured using a Quantigene 2.0 bDNA assay kit (Affymetrix, Santa Clara, CA) with HBV specific custom probe set and manufacturers instructions. Concurrently, the effect of compounds on cell viability was assessed using replicate plates, plated at a density of 5,000 cells/well and incubated for 4 days, to determine the ATP content as a measure of cell viability using the cell-titer glo reagent (CTG; Promega Corporation, Madison, WI) as per manufacturer's instructions.

[1] = Hepatitis B virus, HepDE19, 168 h, read-out: DE-19bDNA EC50 (μM), HepDE19 cells, 7 day incubation, rcDNA measured by Quantigene 2.0 bDNA assay, top concentration 25 μM
[2] = HepDE19 cells, 7 day incubation, rcDNA measured by Quantigene 2.0 bDNA assay, top concentration 25 μM, read-out: DE-19bDNA EC50
[3] = read-out: DE-19bDNA EC50, HepDE19 cells, 7 day incubation, rcDNA measured by Quantigene 2.0 bDNA assay, top concentration 25 μM
[4] = Hepatitis B virus, HepDE19, 168 h, HepDE19 cells, 7 day incubation, rcDNA measured by Quantigene 2.0 bDNA assay, top concentration 25 μM, read-out: DE-19bDNA EC50

| Structure (SMILES) | EC50 [2] [µM] | further results |
| --- | --- | --- |
| C[C@H](c1c[nH]c(=O)c2cc(F)c(F)cc12)N(C)C(=O)c1cc2sc(Cl)cc2[nH]1 [Compound 186, (R)-2-Chloro-N-(1-(6,7-difluoro-1-oxo-1,2-dihydroisoquinolin-4-yl)ethyl)-N-methyl-4H-thieno[3,2-b]pyrrole-5-carboxamide] | – | EC50 [1]: 0.03 µM |
| CC(c1c[nH]c(=O)c2c(F)c(F)ccc12)N(C)C(=O)c1cc2c(F)cccn2c1 (single isomer, unassigned) [Compound 81, N-(1-(7,8-Difluoro-1-oxo-1,2-dihydroisoquinolin-4-yl)ethyl)-8-fluoro-N-methylindolizine-2-carboxamide] | 2.1 | – |
| C[C@H](c1c[nH]c(=O)c2cc(F)c(F)cc12)N(C)C(=O)c1cc2c([nH]1)CCCC2 [Compound 34, (R)-N-(1-(6,7-Difluoro-1-oxo-1,2-dihydroisoquinolin-4-yl)ethyl)-N-methyl-4,5,6,7-tetrahydro-1H-indole-2-carboxamide] | – | EC50 [1]: 0.05 µM |
| CC(c1c[nH]c(=O)c2cc(F)c(F)cc12)N(C)C(=O)c1cc2c([nH]1)CCC2 (single isomer, unassigned) [Compound 47, N-(1-(6,7-Difluoro-1-oxo-1,2-dihydroisoquinolin-4-yl)ethyl)-N-methyl-1,4,5,6-tetrahydro cyclopenta[b]pyrrole-2-carboxamide] | ≥ 25 | – |
| CC(c1cn(C)c(=O)c2cc(F)c(F)cc12)N(C)C(=O)c1cc2c(F)cccn2c1 (single isomer, unassigned) [Compound 171, N-(1-(6,7-difluoro-2-methyl-1-oxo-1,2-dihydroisoquinolin-4-yl)ethyl)-8-fluoro-N-methylindolizine-2-carboxamide] | 16.4 | – |
| CC(c1c[nH]c(=O)c2c(F)c(F)ccc12)N(C)C(=O)C1Cc2cc(F)ccc2N1 (stereo not shown) [Compound 76, N-(1-(7,8-Difluoro-1-oxo-1,2-dihydroisoquinolin-4-yl)ethyl)-5-fluoro-N-methylindoline-2-carboxamide] | 4.4 | – |
| CC(c1cn(C)c(=O)c2cc(F)c(F)cc12)N(C)C(=O)c1ccc(Br)c(F)c1 (single isomer, unassigned) [Compound 162, 4-bromo-N-(1-(6,7-difluoro-2-methyl-1-oxo-1,2-dihydroisoquinolin-4-yl)ethyl)-3-fluoro-N-methylbenzamide] | 0.03 | – |
| CC(c1c[nH]c(=O)c2cc(F)c(F)cc12)N(C)C(=O)c1ccc(Cl)cc1 (single isomer, unassigned) [Compound 131, 4-Chloro-N-(1-(6,7-difluoro-1-oxo-1,2-dihydroisoquinolin-4-yl)ethyl)-N-methylbenzamide] | – | EC50 [3]: 14.7 µM |
| CC(c1c[nH]c(=O)c2cc(F)c(F)cc12)N(C)C(=O)C1Cc2c(F)cc(F)cc2N1 (stereo not shown) [Compound 98, N-(1-(6,7-Difluoro-1-oxo-1,2-dihydroisoquinolin-4-yl)ethyl)-4,6-difluoro-N-methylindoline-2-carboxamide] | 5.9 | – |
| CC(c1c[nH]c(=O)c2cc(F)c(F)cc12)N(C)C(=O)c1ccc2c(ccn2C)c1 (single isomer, unassigned) [Compound 139, N-(1-(6,7-difluoro-1-oxo-1,2-dihydroisoquinolin-4-yl)ethyl)-N,1-dimethyl-1H-indole-5-carboxamide] | > 25 | – |
| CC(c1c[nH]c(=O)c2cc(F)c(F)cc12)N(C)C(=O)c1cc2cc(F)ccc2[nH]1 (single isomer, unassigned) [Compound 10, N-(1-(6,7-Difluoro-1-oxo-1,2-dihydroisoquinolin-4-yl)ethyl)-5-fluoro-N-methyl-1H-indole-2-carboxamide] | – | EC50 [3]: 0.02 µM |
| CC(c1c[nH]c(=O)c2cc(F)c(F)cc12)N(C)C(=O)c1cc2ccccc2o1 (single isomer, unassigned) [Compound 26, N-(1-(6,7-Difluoro-1-oxo-1,2-dihydroisoquinolin-4-yl)ethyl)-N-methylbenzofuran-2-carboxamide] | 0.35 | – |
| COc1ncc(C(C)N(C)C(=O)c2ccc(C(F)(F)F)c(F)c2)c2cc(F)c(F)cc12 (single isomer, unassigned) [Compound 176, N-(1-(6,7-Difluoro-1-methoxyisoquinolin-4-yl)ethyl)-3-fluoro-N-methyl-4-(trifluoromethyl)benzamide] | 0.56 | – |
| C[C@H](c1c[nH]c(=O)c2cc(F)c(F)cc12)N(C)C(=O)c1ccn2cccc2c1 [Compound 187, (R)-N-(1-(6,7-Difluoro-1-oxo-1,2-dihydroisoquinolin-4-yl)ethyl)-N-methylindolizine-7-carboxamide] | – | EC50 [1]: 0.18 µM |
| COc1ncc(C(C)N(C)C(=O)c2cc3c(F)cccn3c2)c2cc(F)c(F)cc12 (single isomer, unassigned) [Compound 180, N-(1-(6,7-difluoro-1-methoxyisoquinolin-4-yl)ethyl)-8-fluoro-N-methylindolizine-2-carboxamide] | 0.24 | – |
| CC(c1c[nH]c(=O)c2cc(F)c(F)cc12)N(C)C(=O)c1cn2ccccc2n1 (single isomer, unassigned) [Compound 45, N-(1-(6,7-Difluoro-1-oxo-1,2-dihydroisoquinolin-4-yl)ethyl)-N-methylimidazo[1,2-a]pyridine-2-carboxamide] | 2.5 | – |
| CC(c1c[nH]c(=O)c2cc(F)c(F)cc12)N(C)C(=O)c1cc2c(F)cc(F)cc2[nH]1 (single isomer, unassigned) [Compound 18, N-(1-(6,7-Difluoro-1-oxo-1,2-dihydroisoquinolin-4-yl)ethyl)-4,6-difluoro-N-methyl-1H-indole-2-carboxamide] | 0.02 | – |
| COc1ncc(C(C)N(C)C(=O)c2ccc(Br)c(F)c2)c2cc(F)c(F)cc12 (single isomer, unassigned) [Compound 178, 4-Bromo-N-(1-(6,7-difluoro-1-methoxyisoquinolin-4-yl)ethyl)-3-fluoro-N-methylbenzamide] | 0.2 | – |
| COc1ncc(C(C)N(C)C(=O)c2cc3cc(F)c(F)cc3[nH]2)c2cc(F)c(F)cc12 (single isomer, unassigned) [Compound 170, N-(1-(6,7-Difluoro-1-methoxyisoquinolin-4-yl)ethyl)-5,6-difluoro-N-methyl-1H-indole-2-carboxamide] | 5.04 | – |
| CC(c1cn(C)c(=O)c2cc(F)c(F)cc12)N(C)C(=O)c1ccc(C(F)(F)F)c(F)c1 (single isomer, unassigned) [Compound 165, N-(1-(6,7-difluoro-2-methyl-1-oxo-1,2-dihydroisoquinolin-4-yl)ethyl)-3-fluoro-N-methyl-4-(trifluoromethyl)benzamide] | – | EC50 [4]: 2.34 µM |
| CC(c1c[nH]c(=O)c2c(F)c(F)ccc12)N(C)C(=O)c1cc2c(F)cccn2c1 (single isomer, unassigned) [Compound 82, N-(1-(7,8-Difluoro-1-oxo-1,2-dihydroisoquinolin-4-yl)ethyl)-8-fluoro-N-methylindolizine-2-carboxamide] | 0.07 | – |
| CC(c1c[nH]c(=O)c2cc(F)c(F)cc12)N(C)C(=O)c1cc2ccccn2c1 (single isomer, unassigned) [Compound 69, N-(1-(6,7-Difluoro-1-oxo-1,2-dihydroisoquinolin-4-yl)ethyl)-N-methylindolizine-2-carboxamide] | – | EC50 [3]: 5.7 µM |
| CC(c1c[nH]c(=O)c2cc(F)c(F)cc12)N(C)C(=O)c1n[nH]c2ccccc12 (single isomer, unassigned) [Compound 55, N-(1-(6,7-Difluoro-1-oxo-1,2-dihydroisoquinolin-4-yl)ethyl)-N-methyl-2H-indazole-3-carboxamide] | – | EC50 [4]: 16 µM |
| CC(c1c[nH]c(=O)c2cc(F)c(F)cc12)N(C)C(=O)c1cc(F)c(F)c(F)c1 (single isomer, unassigned) [Compound 124, N-(1-(6,7-Difluoro-1-oxo-1,2-dihydroisoquinolin-4-yl)ethyl)-3,4,5-trifluoro-N-methylbenzamide] | 0.19 | – |
| CC(c1c[nH]c(=O)c2c(F)c(F)ccc12)N(C)C(=O)C1Cc2c(F)cc(F)cc2N1 (stereo not shown) [Compound 65, N-(1-(7,8-Difluoro-1-oxo-1,2-dihydroisoquinolin-4-yl)ethyl)-4,6-difluoro-N-methylindoline-2-carboxamide] | 11 | – |
| CC(c1c[nH]c(=O)c2cc(F)c(F)cc12)N(C)C(=O)c1cc2ccccn2c1 (single isomer, unassigned) [Compound 70, N-(1-(6,7-Difluoro-1-oxo-1,2-dihydroisoquinolin-4-yl)ethyl)-N-methylindolizine-2-carboxamide] | – | EC50 [4]: 0.02 µM |
| CC(c1c[nH]c(=O)c2cc(F)c(F)cc12)N(C)C(=O)c1cc2ccccc2[nH]1 (single isomer, unassigned) [Compound 2, N-(1-(6,7-Difluoro-1-oxo-1,2-dihydroisoquinolin-4-yl)ethyl)-N-methyl-1H-indole-2-carboxamide] | 0.02 | – |
| CC(c1c[nH]c(=O)c2cc(F)c(F)cc12)N(C)C(=O)c1cc2cc(F)ccc2[nH]1 (single isomer, unassigned) [Compound 9, N-(1-(6,7-Difluoro-1-oxo-1,2-dihydroisoquinolin-4-yl)ethyl)-5-fluoro-N-methyl-1H-indole-2-carboxamide] | – | EC50 [3]: 1.6 µM |
